SMILES strings stand for the structures. pIC50: −log10 of the molar value. Where a name gives a salt, the structure may show the parent alone. Read-outs that look alike come from different tables or passages of the source.

For test [1], the target named is recombinant human MetAP2 (Homo sapiens (Human), UniProt P50579). Briefly: recombinant human MetAP2 enzyme inhibition assay. The format is biochemical. How it is done: Compounds are tested for their capacity to inhibit recombinant human MetAP2 activity using the following assay.
Flag tagged Human recombinant MetAP2 expressed and isolated for use as the enzyme source. 10 mM stock solutions of compounds were prepared in 100% DMSO and further diluted in 100% DMSO required concentration to 1 mM stocks. The stock compound solutions and DMSO vehicle controls were diluted to target final compound concentrations using assay buffer to a final concentration of 50 mM HEPES containing 100 mM NaCl, pH adjusted to 7.5. The MAS peptide was formulated to a 7.5 mM stock in distilled water and prior to use further diluted 1:4. […] 40 μl of enzyme was mixed with 100 μl of MnCl2 then further diluted in assay buffer to a final concentration of 16 μg/ml. To test for compound effect on MetAP2 enzyme activity, 5 μl of test compound, 10 μl of MAS substrate/amino acid oxidase mixture, 10 μl of MetAP2 was added to test wells in a 384 well black plate with blank wells containing no enzyme, replaced with 10 μl of assay buffer. All compounds were tested in duplicate on two occasions on the same day.
The plate was sealed with a TopSeal A cover and mixed briefly on an orbital mixer at 900 rpm. The plate was incubated for a further 25 minutes at 25° C. A 5× stock of Amplex buffer was prepared (0.25M sodium phosphate, pH 7.4) and stored at 4° C. […] 25 μl detection reagent was added to each well of the test plate, which was re-sealed and mixed briefly on an orbital shaker.

The test system of test [2] is Diet Induced Obese (DIO) C57BL/6 mice. Kind of test: 10 day DIO mouse model (body weight, food intake, hematology, blood chemistry). The format is in vivo. As to conditions: 240 h, DIO mouse, once a day for 10 days, read-out: DIO Mouse 10-day weight loss vs vehicle; for inhibition in vivo at 0.3 mg/kg: 0.3 mpk sc. A digest of the protocol:
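DIO C57BL/6 mice on 60% kcal fat diet received compounds subcutaneously once daily for 10 days at 1.0, 0.5, 0.3, 0.1 or 0.03 mpk, in 10% DMSO in water, after 3-day vehicle acclimation. Body weight and food intake were recorded daily. Hematology and blood chemistry were taken on Day 11, 24 h post-final dose.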

[3] abbreviates: recombinant human MetAP2, MAS peptide substrate, 25 minutes at 25° C.

Sequence of recombinant human MetAP2 (P50579 whole entry): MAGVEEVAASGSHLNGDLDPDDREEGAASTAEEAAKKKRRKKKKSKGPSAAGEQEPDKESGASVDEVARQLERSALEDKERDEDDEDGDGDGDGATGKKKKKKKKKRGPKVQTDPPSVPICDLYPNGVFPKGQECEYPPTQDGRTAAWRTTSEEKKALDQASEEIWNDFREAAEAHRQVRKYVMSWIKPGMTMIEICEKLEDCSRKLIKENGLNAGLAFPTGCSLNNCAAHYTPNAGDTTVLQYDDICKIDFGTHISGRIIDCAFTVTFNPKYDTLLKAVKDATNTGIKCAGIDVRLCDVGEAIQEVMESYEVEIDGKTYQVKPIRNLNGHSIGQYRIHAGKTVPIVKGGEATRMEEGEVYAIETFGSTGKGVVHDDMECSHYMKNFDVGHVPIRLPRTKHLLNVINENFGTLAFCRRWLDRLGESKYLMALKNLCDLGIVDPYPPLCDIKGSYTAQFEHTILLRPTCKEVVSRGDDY

Usually pIC50 stands for the IC50 on a negative log10 scale, so that one unit is a factor of ten. Take `CCN(CC)CCC1CCN(C(=O)O[C@@H]2CC[C@]3(CO3)[C@@H]([C@@]3(C)O[C@@H]3CC=C(C)C)[C@@H]2OC)C1` (stereo in doubt) [Example 56, (S)-(3R,4S,5S,6R)-5-methoxy-4-((2R,3R)-2-methyl-3-(3-methylbut-2-en-1-yl)oxiran-2-yl)-1-oxaspiro[2.5]octan-6-yl 3-(2-(diethylamino)ethyl)pyrrolidine-1-carboxylate]: in test [1] (setting [3]), the pIC50 was greater than 7.30. Besides, the inhibition in vivo at 0.3 mg/kg in test [2] turned out to be 7.2%.

With `CO[C@@H]1[C@H](OC(=O)N2CC(CCN3CCCCC3)C2)CC[C@]2(CO2)[C@H]1[C@@]1(C)O[C@@H]1CC=C(C)C` [Example 4, (3R,4S,5S,6R)-5-methoxy-4-((2R,3R)-2-methyl-3-(3-methylbut-2-enyl)oxiran-2-yl)-1-oxaspiro[2.5]octan-6-yl 3-(2-(piperidin-1-yl)ethyl)azetidine-1-carboxylate formate], the pIC50 in test [1] (setting [3]) was greater than 7.30. Moreover, the inhibition in vivo at 0.3 mg/kg in test [2] was 4.1%.

For `CO[C@@H]1[C@H](OC(=O)N2CC(CCN3CCC3)C2)CC[C@]2(CO2)[C@H]1[C@@]1(C)O[C@@H]1CC=C(C)C` [Example 5, (3R,4S,5S,6R)-5-methoxy-4-((2R,3R)-2-methyl-3-(3-methylbut-2-en-1-yl)oxiran-2-yl)-1-oxaspiro[2.5]octan-6-yl 3-(2-(azetidin-1-yl)ethyl)azetidine-1-carboxylate], the pIC50 in test [1] (setting [3]) was greater than 7.30. Moreover, the inhibition in vivo at 0.3 mg/kg in test [2] amounted to 4.3%.

With `CO[C@@H]1[C@H](OC(=O)N2CC(CCN3CCC(O)CC3)C2)CC[C@]2(CO2)[C@H]1[C@@]1(C)O[C@@H]1CC=C(C)C` [Example 7, (3R,4S,5S,6R)-5-methoxy-4-((2R,3R)-2-methyl-3-(3-methylbut-2-en-1-yl)oxiran-2-yl)-1-oxaspiro[2.5]octan-6-yl 3-(2-(4-hydroxypiperidin-1-yl)ethyl)azetidine-1-carboxylate], the pIC50 in test [1] (setting [3]) is greater than 7.30. In test [2] (Mus musculus, sc), the inhibition in vivo at 0.3 mg/kg came out at 1.8%.

Turning to `CO[C@@H]1[C@H](OC(=O)N2CC(CCN3CCC(C)(O)CC3)C2)CC[C@]2(CO2)[C@H]1[C@@]1(C)O[C@@H]1CC=C(C)C` [Example 8, (3R,4S,5S,6R)-5-methoxy-4-((2R,3R)-2-methyl-3-(3-methylbut-2-enyl)oxiran-2-yl)-1-oxaspiro[2.5]octan-6-yl 3-(2-(4-hydroxy-4-methylpiperidin-1-yl)ethyl)azetidine-1-carboxylate], the pIC50 in test [1] (setting [3]) was greater than 7.30. Besides, the inhibition in vivo at 0.3 mg/kg in test [2] was determined as 4.9%. Further, the inhibition in vivo at 1 mg/kg in test [2] (1.0 mpk sc) was found to be 17.3%.

In the case of `CO[C@@H]1[C@H](OC(=O)N2CC(CCN3CC4(COC4)C3)C2)CC[C@]2(CO2)[C@H]1[C@@]1(C)O[C@@H]1CC=C(C)C` [Example 16, (3R,4S,5S,6R)-5-methoxy-4-((2R,3R)-2-methyl-3-(3-methylbut-2-en-1-yl)oxiran-2-yl)-1-oxaspiro[2.5]octan-6-yl 3-(2-(2-oxa-6-azaspiro[3.3]heptan-6-yl)ethyl)azetidine-1-carboxylate], the pIC50 in test [1] (setting [3]) is greater than 7.30. Also, the inhibition in vivo at 0.3 mg/kg in test [2] is 3.1%.

As for `CCN(CC)CCC1(O)CN(C(=O)O[C@@H]2CC[C@]3(CO3)[C@@H]([C@@]3(C)O[C@@H]3CC=C(C)C)[C@@H]2OC)C1` [Example 49, (3R,4S,5S,6R)-5-methoxy-4-((2R,3R)-2-methyl-3-(3-methylbut-2-enyl)oxiran-2-yl)-1-oxaspiro[2.5]octan-6-yl 3-(2-(diethylamino)ethyl)-3-hydroxyazetidine-1-carboxylate], the pIC50 in test [1] (setting [3]) is greater than 7.30. Besides, in test [2], the inhibition in vivo at 0.3 mg/kg is 4.1%.

`CCN(CC)CCCC1(O)CN(C(=O)O[C@@H]2CC[C@]3(CO3)[C@@H]([C@@]3(C)O[C@@H]3CC=C(C)C)[C@@H]2OC)C1` [Example 61, (3R,4S,5S,6R)-5-methoxy-4-((2R,3R)-2-methyl-3-(3-methylbut-2-enyl)oxiran-2-yl)-1-oxaspiro[2.5]octan-6-yl 3-(3-(diethylamino)propyl)-3-hydroxyazetidine-1-carboxylate]: the pIC50 in test [1] (setting [3]) was greater than 7.30.

`CO[C@@H]1[C@H](OC(=O)N2CC(CC(=O)N3CCOCC3)C2)CC[C@]2(CO2)[C@H]1[C@@]1(C)O[C@@H]1CC=C(C)C` [Example 62, (3R,4S,5S,6R)-5-methoxy-4-((2R,3R)-2-methyl-3-(3-methylbut-2-enyl)oxiran-2-yl)-1-oxaspiro[2.5]octan-6-yl 3-(2-morpholino-2-oxoethyl)azetidine-1-carboxylate formate]: in test [1] (setting [3]), the pIC50 was greater than 7.30. Moreover, the inhibition in vivo at 0.3 mg/kg in test [2] came to 7.4%.

With `CNC(=O)CC1CN(C(=O)O[C@@H]2CC[C@]3(CO3)[C@@H]([C@@]3(C)O[C@@H]3CC=C(C)C)[C@@H]2OC)C1` [Example 63, (3R,4S,5S,6R)-5-methoxy-4-((2R,3R)-2-methyl-3-(3-methylbut-2-enyl)oxiran-2-yl)-1-oxaspiro[2.5]octan-6-yl 3-(2-(methylamino)-2-oxoethyl)azetidine-1-carboxylate], the pIC50 in test [1] (setting [3]) was greater than 7.30. In addition, the inhibition in vivo at 0.3 mg/kg in test [2] amounted to 0.5%.

Consider `CO[C@@H]1[C@H](OC(=O)N2CC(CC(N)=O)C2)CC[C@]2(CO2)[C@H]1[C@@]1(C)O[C@@H]1CC=C(C)C` [Example 65, (3R,4S,5S,6R)-5-methoxy-4-((2R,3R)-2-methyl-3-(3-methylbut-2-enyl)oxiran-2-yl)-1-oxaspiro[2.5]octan-6-yl 3-(2-amino-2-oxoethyl)azetidine-1-carboxylate], for which the pIC50 in test [1] (setting [3]) was greater than 7.30. Further, in test [2], the inhibition in vivo at 0.3 mg/kg amounted to 2.6%.

For the compound `CCN(CC)CCNC(=O)CC1CN(C(=O)O[C@@H]2CC[C@]3(CO3)[C@@H]([C@@]3(C)O[C@@H]3CC=C(C)C)[C@@H]2OC)C1` [Example 66, (3R,4S,5S,6R)-5-methoxy-4-((2R,3R)-2-methyl-3-(3-methylbut-2-enyl)oxiran-2-yl)-1-oxaspiro[2.5]octan-6-yl 3-(2-(2-(diethylamino)ethylamino)-2-oxoethyl)azetidine-1-carboxylate], the pIC50 in test [1] (setting [3]) is greater than 7.30. For the same compound, the inhibition in vivo at 0.3 mg/kg in test [2] turned out to be 7.6%.

As to `CO[C@@H]1[C@H](OC(=O)N2CC(OC(N)=O)C2)CC[C@]2(CO2)[C@H]1[C@@]1(C)O[C@@H]1CC=C(C)C` [Example 72, (3R,4S,5S,6R)-5-methoxy-4-((2R,3R)-2-methyl-3-(3-methylbut-2-enyl)oxiran-2-yl)-1-oxaspiro[2.5]octan-6-yl 3-(carbamoyloxy)azetidine-1-carboxylate], the pIC50 in test [1] (setting [3]) was greater than 7.30. The inhibition in vivo at 0.3 mg/kg in test [2] stood at 0.8%.

For the compound `CCN(CC)CCNC(=O)OC1CN(C(=O)O[C@@H]2CC[C@]3(CO3)[C@@H]([C@@]3(C)O[C@@H]3CC=C(C)C)[C@@H]2OC)C1` [Example 73, (3R,4S,5S,6R)-5-methoxy-4-((2R,3R)-2-methyl-3-(3-methylbut-2-en-1-yl)oxiran-2-yl)-1-oxaspiro[2.5]octan-6-yl 3-(((2-(diethylamino)ethyl)carbamoyl)oxy)azetidine-1-carboxylate], in test [1] (setting [3]), the pIC50 was greater than 7.30. In addition, the inhibition in vivo at 0.3 mg/kg in test [2] was 7.4%.

Regarding `CNC(=O)NC1CN(C(=O)O[C@@H]2CC[C@]3(CO3)[C@@H]([C@@]3(C)O[C@@H]3CC=C(C)C)[C@@H]2OC)C1` [Example 84, (3R,4S,5S,6R)-5-methoxy-4-((2R,3R)-2-methyl-3-(3-methylbut-2-enyl)oxiran-2-yl)-1-oxaspiro[2.5]octan-6-yl 3-(3-methylureido)azetidine-1-carboxylate], in test [1] (setting [3]), the pIC50 was greater than 7.30. The inhibition in vivo at 0.3 mg/kg in test [2] stood at 0.8%.

On to `CCNC[C@@H]1CCN1C(=O)O[C@@H]1CC[C@]2(CO2)[C@@H]([C@@]2(C)O[C@@H]2CC=C(C)C)[C@@H]1OC` [Example 122, (S)-((3R,4S,5S,6R)-5-methoxy-4-((2R,3R)-2-methyl-3-(3-methylbut-2-enyl)oxiran-2-yl)-1-oxaspiro[2.5]octan-6-yl) 2-((ethylamino)methyl)azetidine-1-carboxylate], for which the pIC50 in test [1] (setting [3]) was greater than 7.30. In addition, the inhibition in vivo at 0.3 mg/kg in test [2] came out at 3.2%.

For the compound `CCNCCCC1CN(C(=O)O[C@@H]2CC[C@]3(CO3)[C@@H]([C@@]3(C)O[C@@H]3CC=C(C)C)[C@@H]2OC)C1` [Example 124, (3R,4S,5S,6R)-5-methoxy-4-((2R,3R)-2-methyl-3-(3-methylbut-2-enyl)oxiran-2-yl)-1-oxaspiro[2.5]octan-6-yl 3-(3-(ethylamino)propyl)azetidine-1-carboxylate formate], the pIC50 in test [1] was greater than 7.30. Further, the inhibition in vivo at 0.3 mg/kg in test [2] was found to be 4.9%.
